Assay results from BigSolDB 2.1.

C=CC(=O)NC(C)(C)C
Conditions | solubility (mole fraction)
in DMAc, 293.15 K | 0.0814
in DMAc, 298.15 K | 0.0897
in DMAc, 303.15 K | 0.0979
in DMAc, 308.15 K | 0.11
in DMAc, 313.15 K | 0.127
in DMAc, 318.15 K | 0.146
in DMAc, 323.15 K | 0.172
in DMAc, 328.15 K | 0.203
in DMAc, 333.15 K | 0.236
in DMAc, 338.15 K | 0.274
in DMAc, 343.15 K | 0.317
in DMAc, 348.15 K | 0.364
in DMAc, 353.15 K | 0.43
in DMF, 288.15 K | 0.0207
in DMF, 293.15 K | 0.0237
in DMF, 298.15 K | 0.0283
in DMF, 303.15 K | 0.0333
in DMF, 308.15 K | 0.0403
in DMF, 313.15 K | 0.0463
in DMF, 318.15 K | 0.0529
in DMF, 323.15 K | 0.0599
in DMF, 328.15 K | 0.0709
in DMF, 333.15 K | 0.0833
in DMF, 338.15 K | 0.0987
in DMF, 343.15 K | 0.117
in DMF, 348.15 K | 0.138
in DMF, 353.15 K | 0.166
in dichloromethane, 279.15 K | 0.00541
in dichloromethane, 283.15 K | 0.0065
in dichloromethane, 285.15 K | 0.0072
in dichloromethane, 287.15 K | 0.00798
in dichloromethane, 289.15 K | 0.00889
in dichloromethane, 291.15 K | 0.00962
in dichloromethane, 293.15 K | 0.0106
in dichloromethane, 296.15 K | 0.0117
in dichloromethane, 298.15 K | 0.0128
in dichloromethane, 301.15 K | 0.0142
in dichloromethane, 304.15 K | 0.016
in ethanol, 284.95 K | 0.00136
in ethanol, 287.95 K | 0.00152
in ethanol, 291.15 K | 0.0017
in ethanol, 294.15 K | 0.0021
in ethanol, 297.15 K | 0.0024
in ethanol, 300.15 K | 0.00283
in ethanol, 304.15 K | 0.00344
in ethanol, 307.15 K | 0.00392
in ethanol, 310.15 K | 0.00463
in ethanol, 313.15 K | 0.00522
in ethanol, 316.15 K | 0.00598
in ethanol, 319.15 K | 0.00677
in ethanol, 324.15 K | 0.00864
in ethanol, 330.15 K | 0.0113
in ethanol, 335.15 K | 0.0142
in ethyl acetate, 287.15 K | 0.015
in ethyl acetate, 290.15 K | 0.0155
in ethyl acetate, 293.15 K | 0.0166
in ethyl acetate, 296.15 K | 0.0178
in ethyl acetate, 299.15 K | 0.0188
in ethyl acetate, 302.15 K | 0.0204
in ethyl acetate, 305.15 K | 0.0225
in ethyl acetate, 310.15 K | 0.0256
in ethyl acetate, 315.15 K | 0.0289
in ethyl acetate, 320.15 K | 0.0327
in ethyl acetate, 325.15 K | 0.0363
in ethyl acetate, 330.15 K | 0.0406
in ethyl acetate, 335.15 K | 0.045
in ethyl acetate, 340.15 K | 0.0506
in formamide, 284.15 K | 0.00078
in formamide, 288.15 K | 0.000929
in formamide, 294.15 K | 0.00117
in formamide, 305.15 K | 0.00199
in formamide, 308.15 K | 0.00229
in formamide, 312.15 K | 0.00277
in formamide, 316.15 K | 0.00348
in formamide, 320.15 K | 0.0043
in formamide, 324.15 K | 0.00512
in formamide, 329.15 K | 0.00639
in formamide, 334.15 K | 0.00776
in formamide, 340.15 K | 0.00994
in formamide, 345.15 K | 0.0122
in formamide, 350.15 K | 0.015
in water, 294.15 K | 0.000895
in water, 298.15 K | 0.000994
in water, 303.15 K | 0.00111
in water, 308.15 K | 0.00122
in water, 313.15 K | 0.00136
in water, 318.15 K | 0.00153
in water, 323.15 K | 0.00172
in water, 328.15 K | 0.00192
in water, 333.15 K | 0.00215
in water, 338.15 K | 0.0024
in water, 343.15 K | 0.00267
in water, 348.15 K | 0.00297
in water, 353.15 K | 0.00338
